Results from ChEMBL document CHEMBL6096690, “Synthesis and Biological Evaluation of Peripheral HTR2A Antagonists for Colorectal Cancer” (J Med Chem, 2025).

Assays:
[1] = target: 5-hydroxytryptamine receptor 2A (Homo sapiens, UniProt P28223); experiment: Antagonist activity at 5HTR2A (unknown origin) assessed as inhibition of 5-HTR2A
[2] = target: hERG (KCNH2) (Homo sapiens, UniProt Q12809); experiment: Inhibition of hERG at 10 uM relative to control; type: toxicity
Chain of hERG (KCNH2) (Q12809 whole entry): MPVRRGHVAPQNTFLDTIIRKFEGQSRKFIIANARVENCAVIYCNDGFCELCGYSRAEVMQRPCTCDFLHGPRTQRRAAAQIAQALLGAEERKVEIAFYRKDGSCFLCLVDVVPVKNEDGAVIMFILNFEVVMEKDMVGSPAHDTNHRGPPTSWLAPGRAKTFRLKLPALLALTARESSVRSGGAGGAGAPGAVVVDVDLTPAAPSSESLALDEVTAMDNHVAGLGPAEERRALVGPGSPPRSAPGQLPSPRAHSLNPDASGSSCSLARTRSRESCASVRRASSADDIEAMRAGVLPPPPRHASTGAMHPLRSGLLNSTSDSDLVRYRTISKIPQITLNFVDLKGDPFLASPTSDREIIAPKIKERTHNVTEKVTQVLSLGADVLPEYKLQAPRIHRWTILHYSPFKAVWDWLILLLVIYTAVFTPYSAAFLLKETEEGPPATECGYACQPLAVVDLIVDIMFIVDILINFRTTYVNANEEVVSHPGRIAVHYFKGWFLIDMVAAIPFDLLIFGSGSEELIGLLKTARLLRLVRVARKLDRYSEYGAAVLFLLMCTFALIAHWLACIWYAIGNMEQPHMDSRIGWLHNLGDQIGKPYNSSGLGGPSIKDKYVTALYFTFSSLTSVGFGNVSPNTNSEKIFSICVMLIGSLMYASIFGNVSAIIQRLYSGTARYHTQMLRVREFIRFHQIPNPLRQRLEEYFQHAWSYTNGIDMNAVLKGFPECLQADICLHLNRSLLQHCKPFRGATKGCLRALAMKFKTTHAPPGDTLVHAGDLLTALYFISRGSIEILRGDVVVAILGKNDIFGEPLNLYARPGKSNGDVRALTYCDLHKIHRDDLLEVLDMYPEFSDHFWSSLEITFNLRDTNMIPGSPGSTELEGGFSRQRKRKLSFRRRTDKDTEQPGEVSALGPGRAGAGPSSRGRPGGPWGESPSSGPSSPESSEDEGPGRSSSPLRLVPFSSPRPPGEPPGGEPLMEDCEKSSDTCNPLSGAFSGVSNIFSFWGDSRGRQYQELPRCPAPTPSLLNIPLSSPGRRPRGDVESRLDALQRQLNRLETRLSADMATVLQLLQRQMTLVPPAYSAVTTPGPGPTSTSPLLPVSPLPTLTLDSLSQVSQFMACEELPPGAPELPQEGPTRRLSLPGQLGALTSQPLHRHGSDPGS

Chain of 5-hydroxytryptamine receptor 2A (P28223 whole entry): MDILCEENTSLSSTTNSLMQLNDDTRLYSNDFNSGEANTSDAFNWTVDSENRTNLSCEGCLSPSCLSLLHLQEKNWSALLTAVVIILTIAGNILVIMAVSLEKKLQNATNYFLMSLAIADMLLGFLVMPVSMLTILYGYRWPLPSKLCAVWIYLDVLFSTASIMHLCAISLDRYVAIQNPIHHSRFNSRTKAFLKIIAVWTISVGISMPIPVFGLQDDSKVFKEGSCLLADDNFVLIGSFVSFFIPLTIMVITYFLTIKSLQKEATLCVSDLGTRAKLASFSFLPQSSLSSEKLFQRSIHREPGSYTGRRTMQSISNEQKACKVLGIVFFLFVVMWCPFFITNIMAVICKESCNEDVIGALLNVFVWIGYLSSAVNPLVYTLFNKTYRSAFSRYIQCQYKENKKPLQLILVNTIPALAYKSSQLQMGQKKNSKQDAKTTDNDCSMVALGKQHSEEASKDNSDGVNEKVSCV

| IC50 [1] | Structure (SMILES) | inhibition at 10 µM [2] |
| --- | --- | --- |
| 49.5 nM | O=C(NCc1ccc(OCC(O)CN2CCN(c3noc4cc(F)ccc34)CC2)cc1)N(Cc1cc(F)c(F)cc1F)C1CCNCC1 (stereo not given) | 72.9% |
| 54.2 nM | O=C(NCc1ccc(OCC(O)CN2CCN(c3nsc4ccccc34)CC2)cc1)N(Cc1ccc(F)cc1)C1CCNCC1 (stereo not given) | – |
| 820 nM | O=C(NCc1ccc(OCC(O)CN2CCC(C3c4ccc(Cl)cc4CCc4cccnc43)CC2)cc1)N(Cc1ccc(F)cc1)C1CCNCC1 (stereo not given) | – |
| 91.8 nM | O=C(NCc1ccc(OCC(O)CN2CCN(c3cccc(Cl)c3Cl)CC2)cc1)N(Cc1ccc(F)cc1)C1CCNCC1 (stereo not given) | – |
